According to patent US8993552B2, “Compositions and methods for treatment of leukemia” (The Regents of The University of Michigan, priority 2009, dated 2015):
Entries after “also recorded” stand apart in the source; their conditions may differ. Values belong to the compound of their own block, whether it stands above or below them.

How the values were obtained:
[1] = biological target: T1, menin-MLL interaction (Homo sapiens (Human), UniProt O00255); experiment: Fluorescence polarization (FP) competition assay with fluorescein-labeled MLL peptide; type: binding; conditions: for in vitro activity in FP assay relative to parent Compound 1: in words;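 as to all read-outs here: Read-out is fluorescence anisotropy of fluorescein-labeled MLL peptide bound to menin, inhibitors displace the peptide and lower anisotropy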
[2] = biological target: menin (Homo sapiens (Human), UniProt O00255); experiment: NMR STD / competition STD binding experiments; conditions: 2.5 μM menin
[3] = biological target: T1, menin-MLL interaction; experiment: HTRF (TR-FRET) assay, His-tagged menin and biotinylated MLL peptide; type: binding
[4] = tested on: non-MLL leukemia cell lines (Kasumi-1, ME-1); experiment: MTT viability assay in non-MLL leukemia cell lines; type: cell-based, human; conditions: Kasumi-1 (AML1-ETO), ME-1 (CBFβ-SMMHC)
[5] = tested on: Hoxa9 and Meis1 expression; experiment: qRT-PCR of MLL downstream targets in THP-1 cells
[6] = tested on: human leukemia cell lines with MLL translocations (MV4;11, KOPN-8, THP-1, MonoMac6); experiment: MTT viability assay in MLL leukemia cell lines; type: cell-based; conditions: in words
[7] = tested on: Hoxa9 promoter; experiment: Luciferase reporter assay in HEK293 cells transfected with MLL-AF9
[8] = tested on: THP-1 leukemia cells; experiment: Differentiation of THP-1 cells, CD11b by flow cytometry; type: cell-based, human
Text: Thienopyrimidine and benzodiazepine compounds induce differentiation of the MLL leukemia cells.

[9] = biological target: T1, menin-MLL interaction; conditions: 50 μM and 25 μM compound, vs DMSO control
[10] = tested on: Hep-G2 (liver) cell line; experiment: MTT viability assay, liver cell line
[11] = tested on: HK-2 (kidney) cell line; experiment: MTT viability assay, kidney cell line
[12] = FP competition, read-out: IC50 for inhibition of the menin-MLL interaction
[13] = Table 4, NA = no activity, NS not defined in this table, read-out: IC50 in FP assay with FLSN-MLL
[14] = Table 2, FP assay, read-out: IC50
[15] = Table 3, NA = no activity, read-out: IC50 in FP assay with FLSN-MLL
[16] = Table 1, NA = no activity, NS = no saturation on titration curve, read-out: IC50 in FP assay with FLSN-MLL
[17] = Table 1, NA = no activity, NS = no saturation on titration curve

T1 sequence (O00255 whole entry): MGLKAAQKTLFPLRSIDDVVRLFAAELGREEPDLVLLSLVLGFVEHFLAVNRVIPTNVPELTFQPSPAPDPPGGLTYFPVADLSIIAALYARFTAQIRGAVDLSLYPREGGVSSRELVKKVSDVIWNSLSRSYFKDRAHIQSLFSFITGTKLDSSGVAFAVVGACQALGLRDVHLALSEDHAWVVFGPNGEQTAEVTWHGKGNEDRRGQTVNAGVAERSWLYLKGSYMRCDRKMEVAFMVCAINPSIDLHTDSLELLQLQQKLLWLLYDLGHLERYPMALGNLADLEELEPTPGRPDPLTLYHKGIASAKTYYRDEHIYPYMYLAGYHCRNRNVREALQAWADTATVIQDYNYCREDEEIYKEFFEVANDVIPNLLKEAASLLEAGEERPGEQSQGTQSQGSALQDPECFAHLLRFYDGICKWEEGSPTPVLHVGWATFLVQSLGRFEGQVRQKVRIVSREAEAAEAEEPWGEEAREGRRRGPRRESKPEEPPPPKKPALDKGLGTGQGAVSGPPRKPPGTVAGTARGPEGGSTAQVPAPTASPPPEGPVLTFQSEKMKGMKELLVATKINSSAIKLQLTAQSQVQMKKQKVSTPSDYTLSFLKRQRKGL
menin, sequence (O00255 whole entry): as above

Compound: Nc1cccc(-c2cccnc2)c1 [Compound 42]
IC50 [1, 12]: 50 µM
IC50 [1, 13]: 50 µM
binding to menin by NMR (STD, competition STD with MLL peptide) [2]: Binding to menin was confirmed

Compound: COc1ccc(C2CC(=O)C3=C(C2)Nc2ccccc2N(C(C)=O)C3c2cccnc2)cc1 (stereo not shown) [Compound 85]
IC50 [1, 15]: 72 µM

Compound: CCc1cc2c(N3CCN(CC(=O)N4CCOCC4)CC3)ncnc2s1 [Compound 61]
IC50 [1, 14]: 20 µM

Compound: CC1(C)CN=C(N2CCN(c3ncnc4sc(Br)cc34)CC2)S1 [Compound 72]
IC50 [1, 14]: 4.8 µM

Compound: c1cn(CCCNc2ncnc3sc4c(c23)CCCCC4)cn1 [Compound 3]
IC50 [1, 16]: 83 µM
IC50 ([3]; Table 1): 35 µM

Compound: CC1(C)CC(=O)C2=C(C1)Nc1ccccc1NC2c1ccc2c(c1)OCO2 (stereo not shown) [Compound 34]
IC50 [1, 15]: 12 µM

Compound: CC(C)c1cc2c(N3CCCN(C4=NCC(C)(C)S4)CC3)ncnc2s1 [Compound 75]
IC50 [1, 14]: 32 µM

Compound: COc1ccc(C2CC(=O)C3=C(C2)Nc2ccccc2NC3c2ccccc2C)cc1OC (stereo not shown) [Compound 38]
IC50 [1, 15]: 115 µM

Compound: O=C1CC(c2ccc3c(c2)OCO3)CC2=C1C(c1cccnc1)Nc1ccccc1N2 (stereo not shown) [Compound 36]
IC50 [1, 15]: 63 µM

Compound: Cc1cc2c(N3CCN(c4ccccc4)CC3)ncnc2s1 [Compound 29]
IC50 in FP assay with FLSN-MLL [1, 17]: NA up to 250 μM

Compound: CCc1cc2c(N3CCN(CC(=O)N4CCN(C)CC4)CC3)ncnc2s1 [Compound 69]
IC50 [1, 14]: 16 µM

Compound: CN1CCN(c2ncnc3oc(-c4ccccc4)c(-c4ccccc4)c23)CC1 [Compound 11]
IC50 [1, 16]: 500 µM

Compound: CCc1cc2c(N3CCCN(CC(=O)N4CCCC4)CC3)ncnc2s1 [Compound 74]
IC50 [1, 14]: 7 µM

Compound: CCc1cc2c(N3CCCN(C4=NCC(C)(C)S4)CC3)ncnc2s1 [Compound 76]
IC50 [1, 14]: 6.3 µM

Compound: CC(C)c1cc2c(N3CCN(c4nnc(C(F)(F)F)s4)CC3)ncnc2s1 [Compound 68]
IC50 [1, 14]: 2.4 µM

Compound: c1csc(N2CCN(c3ncnc4sccc34)CC2)n1 [Compound 31]
IC50 [1, 16]: 29.5 µM

Compound: CN1CCCN(c2ncnc3sccc23)CC1 [Compound 27]
IC50 [1, 16]: 350 µM

Compound: c1ccc(CN2CCC(Nc3ncnc4sc5c(c34)CCC5)CC2)cc1 [Compound 78]
IC50 [1, 14]: 12 µM

Compound: O=C1CC(c2ccc3c(c2)OCO3)CC2=C1C(c1ccncc1)Nc1ccccc1N2 (stereo not shown) [Compound 39]
IC50 [1, 15]: 230 µM
growth inhibition of MLL leukemia cells [6]: no effect; also recorded: no growth inhibition
transactivation of the Hoxa9 promoter [7]: No effect

Compound: CC1CCc2c(sc3ncnc(NC4CCN(Cc5ccccc5)CC4)c23)C1 (stereo not shown) [Compound 79]
IC50 [1, 14]: 20 µM

Compound: c1ccc(-c2cc3c(N4CCN(c5nccs5)CC4)ncnc3s2)cc1 [Compound 21]
IC50 [1, 16]: 50 µM

Compound: Cc1c(-c2ccccc2)sc2ncnc(N3CCN(c4nccs4)CC3)c12 [Compound 16]
IC50 [1, 16]: 71 µM

Compound: CC(C)c1cc2c(N3CCN(C4=NCC(C)(C)S4)CC3)ncnc2s1 [Compound 67]
IC50 [1, 14]: 0.65 µM
in vitro activity in FP assay relative to parent Compound 1 [1]: more potent activity
expression of CD11b on the cell surface [8]: increased expression of CD11b
inhibition of the menin-MLL interaction in cells (co-IP) [9]: effectively inhibit

Compound: COC(=O)Cc1nc(C2CCCCC2)cs1 [Compound 51]
IC50 [1, 13]: 1900 µM

Compound: COc1ccc(C2CC(=O)C3=C(C2)Nc2ccccc2NC3c2cccnc2)cc1OC (stereo not shown) [Compound 37]
IC50 [1, 15]: 100 µM

Compound: CC1(C)CN=C(N2CCN(c3ncnc4sc(Cc5ccccc5)cc34)CC2)S1 [Compound 71]
IC50 [1, 14]: 4.6 µM

Compound: Cc1csc(N2CCN(c3nc(CN4CCOCC4)nc4sc5c(c34)CCC(C)C5)CC2)n1 (stereo not shown) [Compound 14]
IC50 [1, 16]: 250 µM

Compound: Cc1csc(N2CCN(c3nc(C)nc4sc5c(c34)CCCC5)CC2)n1 [Compound 15]
IC50 [1, 16]: 49 µM

Compound: CCc1cc2c(N3CCN(c4nnc(C(F)(F)F)s4)CC3)ncnc2s1.Cl [Compound 66]
IC50 [1, 14]: 1.1 µM
in vitro activity in FP assay relative to parent Compound 1 [1]: more potent activity

Compound: CCc1cc2c(N3CCN(C)CC3)ncnc2s1 [Compound 7]
IC50 [1]: 170 µM

Compound: c1cnc(N2CCN(c3ncnc4sccc34)CC2)nc1 [Compound 24]
IC50 in FP assay with FLSN-MLL [1, 17]: NA up to 1 mM

Compound: CCc1cc2c(N3CCN(c4ccccn4)CC3)ncnc2s1 [Compound 8]
IC50 [1, 16]: 60 µM

Compound: COc1cc(C2Nc3ccccc3NC3=C2C(=O)CC(C)(C)C3)cc(OC)c1OC (stereo not shown) [Compound 35]
IC50 [1, 15]: 35 µM

Compound: CCc1cc2c(N3CCN(c4ncccn4)CC3)ncnc2s1 [Compound 10]
IC50 [1, 16]: 250 µM

Compound: CC(=O)N1c2ccccc2NC2=C(C(=O)CC(c3ccc(Cl)c(Cl)c3)C2)C1c1cccnc1 (stereo not shown) [Compound 86]
IC50 [1, 12]: 7.4 µM
IC50 [1, 15]: 7.4 µM
growth inhibition of MLL leukemia cells [6]: strongly inhibited growth
effect on growth of non-MLL leukemia cell lines [4]: no or very limited effect on cell growth
expression level of Hoxa9 and Meis1 [5]: Downregulation of Hoxa9 and Meis1 expression

Compound: CC(=O)N1c2ccccc2NC2=C(C(=O)CC(c3ccc(C(C)(C)C)cc3)C2)C1c1ccncc1 (stereo not shown) [Compound 33]
IC50 [1, 15]: 29 µM
IC50 ([3]; Table 3): 28 µM
binding to menin by NMR (STD, competition STD with MLL peptide) [2]: specific binding
toxicity in viability assay [10]: no substantial signs of toxicity
toxicity in viability assay [11]: no substantial signs of toxicity

Further lines, with some results ahead:

IC50 [1, 14]: 40 µM
Compound: CCc1cc2c(NCC3CCN(Cc4cccc(C)c4)CC3)ncnc2s1 [Compound 81]

IC50 [1, 14]: 10 µM
Compound: CCc1cc2c(N3CCN(C(=O)c4ccccc4)CC3)ncnc2s1 [Compound 62]

IC50 [1, 13]: 67 µM
potency relative to the original hit (6G10) ([1]; inhibition of the menin-MLL interaction): about 4 fold
IC50 ([3]; Table 4): 33 µM
Compound: COc1ccc(-c2csc(CC(N)=O)n2)cc1 [Compound 47]

IC50 [1, 16]: 125 µM
Compound: Fc1ccc(-c2csc3ncnc(N4CCN(c5nccs5)CC4)c23)cc1 [Compound 20]

IC50 [1, 13]: 107 µM
Compound: O=C(Cc1nc(-c2ccc(F)cc2)cs1)N1CCOCC1 [Compound 52]

IC50 [1, 13]: 2000 µM
Compound: NC(=O)Cc1nc(-c2ccccc2)cs1 [Compound 46]

D in FP assay ([1]; Table 4, at 0.5 mM): 30%
Compound: Cc1ccc(-c2csc(CC(N)=O)n2)cc1C [Compound 56]

IC50 [1, 13]: 80 µM
Compound: COc1ccc(-c2csc(CC(N)=O)n2)cc1Br [Compound 58]

IC50 [1, 14]: 20 µM
Compound: COc1ccc(CN2CCCN(c3ncnc4sc(C)c(C)c34)CC2)cc1 [Compound 73]

IC50 [1, 14]: 12 µM
Compound: CCc1cc2c(N3CCN(C(=O)c4ccco4)CC3)ncnc2s1 [Compound 63]
effect on growth of non-MLL leukemia cell lines [4]: No or very limited effect
expression level of Hoxa9 and Meis1 [5]: Downregulation

IC50 [1, 14]: 8.7 µM
Compound: Cc1sc2ncnc(NC3CCN(Cc4ccccc4)CC3)c2c1C [Compound 77]

IC50 [1, 14]: 27 µM
Compound: CCc1cc2c(NCCN(CC)Cc3ccccc3)ncnc2s1 [Compound 83]

IC50 [1, 13]: 137 µM
Compound: NC(=O)Cc1nc(-c2cccc(Cl)c2)cs1 [Compound 54]

IC50 [1, 13]: 510 µM
binding to menin by NMR (STD, competition STD with MLL peptide) [2]: Binding to menin was confirmed
Compound: OCc1ccc(-c2ccncc2)cc1 [Compound 45]

D in FP assay ([1]; Table 4, at 0.5 mM): 30%
Compound: O=C(Cc1nc(-c2ccccc2)cs1)Nc1ccccc1 [Compound 48]

D in FP assay ([1]; Table 4, at 1.0 mM): 10%
Compound: NC(=O)Cc1nc(-c2ccc(Br)cc2)cs1 [Compound 49]

IC50 [1, 13]: 830 µM
Compound: CCCC(=O)Nc1ccc(-c2nc(CC(N)=O)sc2C)cc1 [Compound 59]

IC50 [1, 13]: 230 µM
IC50 ([3]; Table 4): 200 µM
binding to menin by NMR (STD, competition STD with MLL peptide) [2]: Binding to menin was confirmed
Compound: NC(=O)Cc1nc(-c2ccc(F)cc2)cs1 [Compound 43]

IC50 [1, 14]: 1.3 µM
Compound: CCc1cc2c(NC3CCN(Cc4ccccc4)CC3)ncnc2s1 [Compound 80]

IC50 [1, 16]: 42 µM
IC50 ([3]; Table 1): 85 µM
Compound: CCc1cc2c(N3CCN(Cc4ccccc4)CC3)ncnc2s1 [Compound 2]

IC50 [1, 15]: 100 µM
Compound: CC(=O)N1c2ccccc2NC2=C(C(=O)CC(c3ccc(C)cc3)C2)C1c1cccnc1 (stereo not shown) [Compound 84]

IC50 in FP assay with FLSN-MLL [1, 17]: NA up to 100 μM
Compound: CCOC(=O)c1sc2nc(CN3CCOCC3)nc(N3CCN(c4nccs4)CC3)c2c1C [Compound 12]

IC50 [1, 14]: 30 µM
Compound: CCc1cc2c(N3CCN(Cc4ccc(Cl)cc4)CC3)ncnc2s1 [Compound 60]

IC50 [1, 13]: 1060 µM
Compound: O=C(Cc1nc(-c2ccc(Cl)cc2)cs1)NCc1ccccc1 [Compound 53]

IC50 in FP assay with FLSN-MLL [1, 17]: NA up to 250 uM
Compound: CCN(CC)Cc1nc(N2CCN(c3nccs3)CC2)c2c(C)c(C)sc2n1 [Compound 17]

IC50 [1, 13]: 1200 µM
Compound: Cc1cc(C)c(-c2csc(CC(N)=O)n2)cc1C [Compound 57]

IC50 [1, 13]: 122 µM
Compound: Cc1ccccc1NC(=O)Cc1nc(-c2ccc(F)cc2)cs1 [Compound 50]

IC50 [1, 14]: 4.4 µM
Compound: CCc1cc2c(NCC3CCN(Cc4ccc(F)cc4)CC3)ncnc2s1 [Compound 82]

IC50 [1, 13]: 380 µM
binding to menin by NMR (STD, competition STD with MLL peptide) [2]: Binding to menin was confirmed
Compound: Cc1nn(-c2ccccc2)nc1C(N)=O [Compound 44]
